“And” between values parts separate entries of the source, which are not always exact repeats. Equal values may be shown once. “Also recorded” adds a separate entry of the source. Read-outs that look alike come from different tables or passages of the source.
Legend:
[1] = Pharmacokinetic study, plasma; type: in vivo; details: male C57BL/6 mice; for plasma Concentration, Individuals / AUC(0-inf) / AUC(0-t) / Cmax / MRT inf / Tmax / half-life: PO 20 mg/kg; for plasma Concentration, Individuals / concentration at 0.083 hr / concentration at 0.167 hr / concentration at 0.333 hr / concentration at 0.5 hr / concentration at 0.75 hr / concentration at 1 hr / concentration at 2 hr / concentration at 4 hr / concentration at 8 hr: 20 mg/kg; for concentration at 0.083 hr / concentration at 0.167 hr / concentration at 0.333 hr / concentration at 0.5 hr / concentration at 0.75 hr / concentration at 1 hr / concentration at 2 hr / concentration at 4 hr / concentration at 8 hr: male, C57BL/6, mouse, po; for concentration at 0.083 hr / concentration at 0.167 hr / concentration at 0.333 hr / concentration at 0.5 hr / concentration at 0.75 hr / concentration at 1 hr / concentration at 2 hr / concentration at 4 hr / concentration at 8 hr / AUC(0-inf) / AUC(0-t) / Cmax / MRT inf / Tmax / half-life: plasma; for concentration at 8 hr: N=3; for AUC(0-inf) / AUC(0-t) / Cmax / MRT inf / Tmax / half-life: mouse
Protocol: Compound KL50 dosing solution: 3.39% DMSO+96.61% (10% HP-β-CD in saline) at 2 mg/mL; • 1) Weigh 17.39 mg of compound KL50 into a clean tube. • 2) Add 0.295 mL DMSO into the tube containing the compound. • 3) Vortex the tube for 3 min and sonicate it for 4 min. • 4) Add 8.400 mL 10% HP-β-CD in saline into the tube and vortex the tube for 3 min. Compound I-1 dosing solution: 3.39% DMSO+96.61% (10% HP-β-CD in saline) at 2 mg/mL; • 1) Weigh 16.86 mg Compound I-1 into a clean tube. • 2) Add 0.286 mL DMSO into the tube containing the compound. • 3) Vortex the tube for 3 min and sonicate it for 4 min. • 4) Add 8.144 mL 10% HP-β-CD in saline into the tube and vortex the tube for 3 min.
The in-vivo pharmacokinetic and brain distribution study was conducted under the following parameters. Twenty seven C57BL/6 male mice were purchased from Shanghai JiHui Laboratory Animal Co. LTD. Each mouse weighted from 16 g to 17 g. The mice were fasted overnight and fed post 4 hr sampling. Compound KL50 and Compound I-I were administered via oral gavage (PO) at a dose of 20 mg/kg (10 mL/kg). After dosing, sampling was completed at 0.083, 0.167, 0.333, 0.5, 0.75, 1, 2, 4 and 8 hr post dose, with three mice sacrificed at each time point.
Terminal bleeding for plasma and brain was completed at each time point. Approximately 110 μL blood per time point was collected into a K2EDTA tube via the facial vein. The blood sample was put on wet ice and centrifuged to obtain plasma sample (2000 g, 5 min under 4° C.) within 15 minutes. Plasma samples were acidified with 6 μL of formic acid for every 54 μL of plasma. After blood collection, a mid-line incision was made in the animal's scalp and the skin was retracted. The skull overlying the brain was removed. Then, the whole brain was collected, rinsed with cold saline, dried on filtrate paper, and weighed; and then snap frozen by placing the brain into dry-ice. Plasma samples were stored at approximately −70° C. until analysis. Brain tissue was homogenized with 3 volumes (v/w) of PBS (1% FA) and then analyzed with LC-MS/MS. The concentration of study drug was corrected with a dilution factor of four as following: Brain concentration=brain homogenate conc.×4, assuming 1 g wet brain tissue equals to 1 mL

[2] = test system: four isogenic LN229 glioblastoma cell lines (MGMT+/−, MMR+/−); type: cell-based; details: for cytotoxicity and selectivity in the four isogenic cell lines (in words): LN229 MGMT+/−, MMR+/− cells; for therapeutic index: IC50 in MGMT proficient and MMR proficient cells divided by IC50 in MGMT deficient and MMR deficient cells (FIG. 8)
Protocol: Short-term Cell Viability Assay. Cells were seeded in 96-well plates at 1000 or 2000 cells/well and allowed to adhere at 23° C. for 60 min and then incubated overnight at 37° C. Cells were treated with indicated concentrations of compounds in triplicate for 4-6 days prior to fixation with 3.7% paraformaldehyde and nuclear staining with 1 μg/mL Hoechst 33342 dye. Cells were imaged on a Cytation 3 imaging reader (BioTek) and quantified using CellProfiler software.
Statistical analysis. Statistical analysis was performed using GraphPad Prism software. Data are presented as mean or median±SD or SEM as indicated. For in vitro short-term growth delay experiments, IC50 values were determined from the nonlinear regression equation, [inhibitor] vs normalized response with variable slope. For micronuclei assays, comparisons were made with one-way ANOVA and Sidak correction for multiple comparisons. For xenograft growth delay experiments, comparisons were made with Mann-Whitney test (for comparison of 2 groups) or Kruskal-Wallis test with FDR-adjusted p-values with Q set to 5% (for comparison of ≥3 groups). For xenograft survival analysis, Kaplan-Meier analysis was used to evaluate survival rate based on death or removal from study when body weight loss exceeded 20% of initial body weight
We synthesized the imidazotetrazine 4a (KL-50) and the triazene 4b (KL-85), as vehicles to deliver 2-fluoroethyl diazonium (4c), and a series of related agents to probe structure-activity relationships in tissue culture (FIG. Z1, D and F). The 2-fluoropropyl- and 3-fluoropropyl-triazenes (10 and 11, respectively) were prepared by diazotization of 4-aminoimdazole-5-carboxamide, followed by the addition of the respective amine. All other triazenes were prepared according to literature procedures. We evaluated the cytotoxicity of our compounds in short-term cell viability assays against four isogenic LN229 glioblastoma cell lines engineered to be proficient or deficient in MGMT and/or MMR activity, using short hairpin RNAs (shRNAs) targeting MSH2 (referred to as MGMT+/−, MMR+/− cells hereafter; FIG. ZS2A). This approach allowed us to rapidly and rigorously interrogate the relationship between MGMT and MMR status and compound activity.
The compounds 10a through 10l and TMZ were tested in the short-term cell viability assay.

[3] = 0.083 hr, N=3, read-out: plasma Concentration, Mean
[4] = 0.083 hr, read-out: plasma Concentration, Individuals
[5] = 0.167 hr, N=3, read-out: plasma Concentration, Mean
[6] = 0.167 hr, read-out: plasma Concentration, Individuals
[7] = 0.333 hr, N=3, read-out: plasma Concentration, Mean
[8] = 0.333 hr, read-out: plasma Concentration, Individuals
[9] = 0.5 hr, N=3, read-out: plasma Concentration, Mean
[10] = 0.5 hr, read-out: plasma Concentration, Individuals
[11] = 0.75 hr, N=3, read-out: plasma Concentration, Mean
[12] = 0.75 hr, read-out: plasma Concentration, Individuals
[13] = 1 hr, N=3, read-out: plasma Concentration, Mean
[14] = 1 hr, read-out: plasma Concentration, Individuals
[15] = 2 hr, N=3, read-out: plasma Concentration, Mean
[16] = 4 hr, N=3, read-out: plasma Concentration, Mean

SMILES: CNC(=O)c1ncn2c(=O)n(CCF)nnc12 [Compound I-1, 3-(2-fluoroethyl)-N-methyl-4-oxo-3H,4H-imidazo[4,3-d][1,2,3,5]tetrazine-8-carboxamide]
- plasma Concentration, Individuals ([1]; 0.083 hr): 20300 ng/mL and 20500 ng/mL
- plasma Concentration, Individuals ([1]; 0.167 hr): 15000 ng/mL and 16600 ng/mL
- plasma Concentration, Individuals ([1]; 0.333 hr): 11300 ng/mL and 13400 ng/mL
- plasma Concentration, Individuals ([1]; 0.5 hr): 7050 ng/mL and 7190 ng/mL
- plasma Concentration, Individuals ([1]; 0.75 hr): 4010 ng/mL and 3430 ng/mL
- plasma Concentration, Individuals ([1]; 1 hr): 1520 ng/mL and 2430 ng/mL
- plasma Concentration, Individuals ([1]; 2 hr): 359 ng/mL and 714 ng/mL and 185 ng/mL
- plasma Concentration, Individuals ([1]; 4 hr): 5.01 ng/mL and 2.42 ng/mL and 3.21 ng/mL
- plasma Concentration, Individuals ([1]; 8 hr): 2.65 ng/mL and 5.63 ng/mL and 7.33 ng/mL
- concentration at 0.083 hr [1, 3]: 20700 ng/mL
- concentration at 0.083 hr [1, 4]: 21200 ng/mL
- concentration at 0.167 hr [1, 5]: 14300 ng/mL
- concentration at 0.167 hr [1, 6]: 11300 ng/mL
- concentration at 0.333 hr [1, 7]: 11200 ng/mL
- concentration at 0.333 hr [1, 8]: 8830 ng/mL
- concentration at 0.5 hr [1, 9]: 6850 ng/mL
- concentration at 0.5 hr [1, 10]: 6300 ng/mL
- concentration at 0.75 hr [1, 11]: 3810 ng/mL
- concentration at 0.75 hr [1, 12]: 3980 ng/mL
- concentration at 1 hr [1, 13]: 2040 ng/mL
- concentration at 1 hr [1, 14]: 2180 ng/mL
- concentration at 2 hr [1, 15]: 419 ng/mL
- concentration at 4 hr [1, 16]: 3.55 ng/mL
- concentration at 8 hr ([1]; 8 hr): 5.2 ng/mL
- AUC(0-inf) [1]: 9680 ng·h/mL
- AUC(0-t) [1]: 9680 ng·h/mL
- Cmax [1]: 20700 ng/mL
- MRT inf [1]: 32.2 min
- Tmax [1]: 4.98 min
- half-life [1]: 37.3 min
- cytotoxicity and selectivity in the four isogenic cell lines (in words) ([2]; listed as N-methyl KL50): comparable to those for KL50 itself; also recorded: preferable toxicity for MGMT− cells compared to MGMT^+ cells, regardless of MMR status

SMILES: NC(=O)c1ncn2c(=O)n(CCF)nnc12 [KL-50, 3-(2-fluoroethyl)-4-oxo-3H,4H-imidazo[4,3-d][1,2,3,5]tetrazine-8-carboxamide]
- plasma Concentration, Individuals ([1]; 0.083 hr): 25600 ng/mL and 28000 ng/mL
- plasma Concentration, Individuals ([1]; 0.167 hr): 22900 ng/mL and 18100 ng/mL
- plasma Concentration, Individuals ([1]; 0.333 hr): 14500 ng/mL and 20900 ng/mL
- plasma Concentration, Individuals ([1]; 0.5 hr): 12400 ng/mL and 15300 ng/mL
- plasma Concentration, Individuals ([1]; 0.75 hr): 11000 ng/mL and 10200 ng/mL
- plasma Concentration, Individuals ([1]; 1 hr): 7340 ng/mL and 12300 ng/mL
- plasma Concentration, Individuals ([1]; 2 hr): 2750 ng/mL and 4570 ng/mL
- plasma Concentration, Individuals ([1]; 4 hr): 1590 ng/mL and 796 ng/mL
- plasma Concentration, Individuals ([1]; 8 hr): 305 ng/mL and 104 ng/mL and 185 ng/mL
- concentration at 0.083 hr [1, 3]: 25300 ng/mL
- concentration at 0.083 hr [1, 4]: 22300 ng/mL
- concentration at 0.167 hr [1, 5]: 21800 ng/mL
- concentration at 0.167 hr [1, 6]: 24500 ng/mL
- concentration at 0.333 hr [1, 7]: 18100 ng/mL
- concentration at 0.333 hr [1, 8]: 19000 ng/mL
- concentration at 0.5 hr [1, 9]: 14000 ng/mL
- concentration at 0.5 hr [1, 10]: 14400 ng/mL
- concentration at 0.75 hr [1, 11]: 10300 ng/mL
- concentration at 0.75 hr [1, 12]: 9590 ng/mL
- concentration at 1 hr [1, 13]: 10000 ng/mL
- concentration at 1 hr [1, 14]: 10500 ng/mL
- concentration at 2 hr [1, 15]: 3300 ng/mL
- concentration at 2 hr ([1]; 2 hr, read-out: plasma Concentration, Individuals): 2580 ng/mL
- concentration at 4 hr [1, 16]: 1150 ng/mL
- concentration at 4 hr ([1]; 4 hr, read-out: plasma Concentration, Individuals): 1060 ng/mL
- concentration at 8 hr ([1]; 8 hr): 198 ng/mL
- AUC(0-inf) [1]: 28800 ng·h/mL
- AUC(0-t) [1]: 28400 ng·h/mL
- Cmax [1]: 25300 ng/mL
- MRT inf [1]: 88.2 min
- Tmax [1]: 4.98 min
- half-life [1]: 89.4 min
- therapeutic index [2]: 26.64
- selectivity for MGMT-deficient cells ([2]; LN229 MGMT+ versus MGMT− cells): ~25 fold
- cytotoxicity and selectivity in the four isogenic cell lines (in words) [2]: preferable toxicity for MGMT− cells compared to MGMT^+ cells, regardless of MMR status
- cytotoxicity and selectivity in the four isogenic cell lines (in words) ([2]; listed as 4a): mirrored that of 4b

SMILES: Cn1nnc2c(C(N)=O)ncn2c1=O [TMZ, temozolomide, reference compound]
- therapeutic index [2]: less than one
